In the assay the target is T1, gastric H,K-ATPase (Sus scrofa, UniProt P19156).
T1 construct: We prepared H,K-ATPase (EC 7.2.2.19)-enriched membrane vesicles according to Sachs et al; from tissue; host or cells: gastric membrane vesicles
The assay can be described thus: H,K-ATPase activity (Pi release from ATP) inhibition, steady-state kinetic analysis. The format is biochemical, hog. The settings on record: for IC50: 10 mM KCl, read-out: K0.5 for inhibition of ATPase activity; for Kd: fit of model III (binding to E2P and E1ATP), 37 °C. Here is the method: We prepared H,K-ATPase (EC 7.2.2.19)-enriched membrane vesicles according to Sachs et al. ([36]), with slight modifications. The number of nucleotide sites measured under optimal conditions (2.2 mM ATP, 4 mM MgCl2, 0.25 mM EDTA in 25 mM imidazole–HCl, pH 7.4 at 25 °C) was 1.4 nmol per mg of protein. This preparation is essentially free of contamination with Na,K-ATPase, as evidenced by the lack of ouabain-sensitive activity. 0.4 to 0.6 mg alamethicin per milligram protein was used to permeabilize the vesicles.
ATP hydrolysis by H,K-ATPase was measured by following the time course of Pi release at 37 °C; linearity was always checked in order to ensure initial rate conditions. Pi concentration was determined according to the method described by Baginski et al. ([37]) Incubations were performed at 37 °C in media containing 8 μg protein ml^−1, 2 mM ATP, 4 mM MgCl2, and 0.25 mM EDTA in 20 mM imidazole – 20 mM Tris (varying pH) in a final volume of 0.25 ml. KCl concentrations varied between 0 and 100 mM, using choline chloride to adjust total monovalent salt concentration to 150 mM. Reaction blanks were determined by measuring ATP hydrolysis in media containing vanadate. For experiments at variable pH, a buffer combination of 20 mM imidazole-HCl and 20 mM Tris–HCl was used. Tegoprazan and SCH28080 were dissolved in DMSO. The final DMSO concentration in the reaction media was 1%.
were fitted to the data of ATPase activity by nonlinear regression based on the Gauss–Newton algorithm by commercial programs ([38]). Kis parameters are apparent dissociation constants expressed in concentration units, whereas the ais parameters are coefficients with units of activity. A methodical exploration of the equation that best fits each set of results was performed. We first determined the degree of the polynomials in the numerator and the denominator (considering the restriction of n ≤ d and m ≤ d to conform to steady-state equations for enzymes) and then evaluated the contribution of terms of intermediate degree. The goodness of fit of a given equation to the experimental results was evaluated by the AICc ([39]) defined as(5) AICc=N·ln(SS/N)+2·(K+1)·N/(N−K−2) with N: number of data, K: number of parameters, and SS: sum of weighted square residual errors. This criterion allows one to select among multiple equations, the one that best describes the behavior of the experimental data using the least number of parameters, that is the lower value of AICc.
The equations of activity as a function of ligands for each kinetic model were attained using the Mathematica for Windows program. To determine the parameters that will be used to simulate the data, the rate constants and pKa values were fitted to the results using a procedure based on the Gauss–Newton algorithm until the SD of the residual errors reaches a minimal value.

The values that follow come from publication PMC11697777, “How ligands modulate the gastric H,K-ATPase activity and its inhibition by tegoprazan” (The Journal of Biological Chemistry, 2024).

Where two headings read alike, the source gives them in different places.

T1 sequence (P19156 2-1034 limits assumed): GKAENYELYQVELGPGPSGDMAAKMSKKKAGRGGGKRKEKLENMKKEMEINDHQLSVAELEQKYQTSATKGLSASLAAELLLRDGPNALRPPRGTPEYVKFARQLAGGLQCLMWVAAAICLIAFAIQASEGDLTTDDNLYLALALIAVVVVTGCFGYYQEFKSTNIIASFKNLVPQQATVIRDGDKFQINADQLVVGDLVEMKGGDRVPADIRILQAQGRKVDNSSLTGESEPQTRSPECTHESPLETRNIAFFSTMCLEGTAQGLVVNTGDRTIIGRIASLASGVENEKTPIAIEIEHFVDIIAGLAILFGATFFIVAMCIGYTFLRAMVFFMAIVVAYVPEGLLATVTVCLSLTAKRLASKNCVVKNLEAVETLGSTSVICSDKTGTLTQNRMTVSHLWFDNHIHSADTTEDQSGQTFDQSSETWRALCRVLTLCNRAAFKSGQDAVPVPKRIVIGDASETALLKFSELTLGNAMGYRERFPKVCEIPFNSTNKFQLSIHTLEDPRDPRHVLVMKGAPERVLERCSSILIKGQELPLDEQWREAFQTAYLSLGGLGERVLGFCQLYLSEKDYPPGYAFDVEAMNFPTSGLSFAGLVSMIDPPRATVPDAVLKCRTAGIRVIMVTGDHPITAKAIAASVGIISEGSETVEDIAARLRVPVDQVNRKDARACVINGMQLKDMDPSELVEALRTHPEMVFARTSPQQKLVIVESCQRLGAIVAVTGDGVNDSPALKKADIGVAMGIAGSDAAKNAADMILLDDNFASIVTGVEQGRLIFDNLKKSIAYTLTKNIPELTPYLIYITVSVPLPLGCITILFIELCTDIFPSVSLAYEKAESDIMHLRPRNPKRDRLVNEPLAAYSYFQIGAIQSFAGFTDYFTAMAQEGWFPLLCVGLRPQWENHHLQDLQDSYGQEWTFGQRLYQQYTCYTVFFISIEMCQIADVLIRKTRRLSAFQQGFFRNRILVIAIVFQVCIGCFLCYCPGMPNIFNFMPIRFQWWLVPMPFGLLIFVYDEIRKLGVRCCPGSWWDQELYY
T1 sequence (P18434 whole entry partner): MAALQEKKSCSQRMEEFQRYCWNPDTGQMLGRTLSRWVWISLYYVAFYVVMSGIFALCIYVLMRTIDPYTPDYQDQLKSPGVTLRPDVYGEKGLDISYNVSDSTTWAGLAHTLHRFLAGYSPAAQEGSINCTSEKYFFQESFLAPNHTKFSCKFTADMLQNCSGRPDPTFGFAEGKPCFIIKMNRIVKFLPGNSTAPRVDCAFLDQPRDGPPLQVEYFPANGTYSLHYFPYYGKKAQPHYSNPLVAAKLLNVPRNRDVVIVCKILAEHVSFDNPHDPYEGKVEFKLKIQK

For `Cc1nc2c(O[C@H]3CCOc4cc(F)cc(F)c43)cc(C(=O)N(C)C)cc2[nH]1` [tegoprazan, (S)-4-((5,7-difluorochroman-4-yl)oxy)-N,N,2-trimethyl−1Hbenzo[d]imidazole-6-carboxamide], for the setting “[K+] 0-15 mM, pH 7.2”, the “effect of inhibitor on K0.5 for potassium (Equation 3)” value was “increase in K0.5” and the “effect of inhibitor on Vmax (Equation 3)” value was “decrease in Vmax”. In addition, where the note is “[K+] 0-75 mM”, the “effect of inhibitor on K1, apparent high-affinity dissociation constant for K+ (Equation 1)” value is listed as “increase in K1”; the “effect of inhibitor on K2, apparent low-affinity dissociation constant for K+ (Equation 1)” value was “slight increase”; the “effect of inhibitor on a1, theoretical maximal activity (Equation 1)” value is “decreases as a function of the inhibitor concentration”. Besides, the “Kii, equilibrium constant for low-affinity binding (E2KATP), model II” value (fit of model II (binding to E2P and E2KATP), [K+] 0-75 mM) stood at 3.55 µM. Further, the Ki (as a rule, a dissociation constant, usually derived from enzyme kinetics or from competition with a known ligand) (fit of model II (binding to E2P and E2KATP), [K+] 0-75 mM, read-out: Ki, equilibrium constant for high-affinity binding (E2P), model II) was found to be 410 nM. The IC50 (pH 6.2) came to 890 ± 40 nM. The IC50 (pH 7.2) is 3250 ± 290 nM. For the setting “pH 7.2, [K+] 0-75 mM, read-out: apparent Kd / apparent affinity constant, high-affinity binding (Ki) to E2P, model III”, the Kd was found to be 560 ± 40 nM. The Kd (pH 7.2, [K+] 0-75 mM, read-out: apparent Kd / apparent affinity constant, low-affinity binding (Kii) to E1ATP, model III) came to 2700 ± 240 nM.
